Where “and” joins values, the source holds several entries; their conditions need not be identical. Equal entries are not always repeated. Toxic doses and inconclusive results are not listed. The calls were made as follows: active = survival T/C of 150% or more; inactive = T/C below 125% in these data.
System: P388 leukemia ip, CD2F1 mice, survival T/C
Experiment: NCI In Vivo Anticancer Drug Screen. Data for tumor model P388 Leukemia (intraperitoneal) in CD2F1 (CDF1) mice
Details: endpoint: median survival time, higher = longer survival
Summary of the method: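 Mice carrying the transplanted tumor received test compound or vehicle. Survival was recorded in each group, and the value is the treated-group measurement divided by that of the vehicle-treated control group.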

[1] = dose: 50.0 mg/kg/injection, schedule: Q01DX005 (ip), vehicle: saline with Tween-80
[2] = dose: 100.0 mg/kg/injection, schedule: Q01DX005 (ip), vehicle: saline with Tween-80
[3] = dose: 200.0 mg/kg/injection, schedule: Q01DX005 (ip), vehicle: saline with Tween-80
[4] = dose: 100.0 mg/kg/injection, schedule: Q04DX002 (ip), vehicle: saline
[5] = dose: 200.0 mg/kg/injection, schedule: Q04DX002 (ip), vehicle: saline
[6] = dose: 400.0 mg/kg/injection, schedule: Q04DX002 (ip), vehicle: saline
[7] = dose: 100.0 mg/kg/injection, schedule: Q01DX009 (ip), vehicle: saline
[8] = dose: 200.0 mg/kg/injection, schedule: Q01DX009 (ip), vehicle: saline
[9] = dose: 50.0 mg/kg/injection, schedule: Q01DX005 (ip), vehicle: Klucel (hydroxypropylcellulose) (HPC)
[10] = dose: 100.0 mg/kg/injection, schedule: Q01DX005 (ip), vehicle: Klucel (hydroxypropylcellulose) (HPC)
[11] = dose: 200.0 mg/kg/injection, schedule: Q01DX005 (ip), vehicle: Klucel (hydroxypropylcellulose) (HPC)
[12] = dose: 50.0 mg/kg/injection, schedule: Q01DX009 (ip), vehicle: saline

Measured: T/C

Clc1ccc(OCCC(Cn2ccnc2)c2ccc(Cl)cc2Cl)c(Cl)c1 (centres undefined)
inactive: dose: 12.5 mg/kg/injection, schedule: Q01DX009 (ip), vehicle: saline with Tween-80 113 % of control | dose: 25.0 mg/kg/injection, schedule: Q01DX009 (ip), vehicle: saline with Tween-80 112 % of control | dose: 50.0 mg/kg/injection, schedule: Q01DX009 (ip), vehicle: saline with Tween-80 101 % of control

CC(=O)C/C(=N\NS(=O)(=O)c1cc(Cl)c(Cl)cc1Cl)c1ccc([N+](=O)[O-])cc1
inactive: dose: 100.0 mg/kg/injection, schedule: Q04DX003 (ip), vehicle: saline 99 % of control | dose: 200.0 mg/kg/injection, schedule: Q04DX003 (ip), vehicle: saline 100 % of control | dose: 400.0 mg/kg/injection, schedule: Q04DX003 (ip), vehicle: saline 97 % of control

CS(=O)(=O)c1nnc(-c2cc[n+]([O-])cc2)s1
inactive: dose: 6.25 mg/kg/injection, schedule: Q01DX005 (ip), vehicle: Klucel (hydroxypropylcellulose) (HPC) 114 % of control | dose: 12.5 mg/kg/injection, schedule: Q01DX005 (ip), vehicle: Klucel (hydroxypropylcellulose) (HPC) 114 % of control

COCN(C)N=Nc1ccc(Br)cc1
inactive: [1] 95 % of control | [2] 103 % of control | [3] 102 % of control

Cc1[nH]n(-c2ccccc2)c(=O)c1N=Nc1cccc(C(F)(F)F)c1
inactive: [4] 92 % of control | [5] 99 % of control | [6] 100 % of control

COc1ccc(CN)cc1OC
inactive: [7] 100 % of control | [8] 105 % of control

CCOc1c(N=Nc2ccccc2Cl)c(C)nn1C(N)=S
inactive: dose: 3.75 mg/kg/injection, schedule: Q01DX005 (ip), vehicle: Klucel + Tween-80 103 % of control | dose: 7.5 mg/kg/injection, schedule: Q01DX005 (ip), vehicle: Klucel + Tween-80 103 % of control | dose: 15.0 mg/kg/injection, schedule: Q01DX005 (ip), vehicle: Klucel + Tween-80 100 % of control and 110 % of control

CC1C[N+]2(CNC(=O)C3=C(O)C4(O)C(=O)C5=C(O)c6c(O)cccc6C(C)(O)C5CC4C(N(C)C)C3=O)CC(C)O[B-]2(c2ccccc2)O1 (centres undefined)
inactive: [9] 110 % of control | [10] 110 % of control | [11] 100 % of control

CC(=O)N/C(=C\c1ccc([N+](=O)[O-])cc1)c1nc2ccccc2s1
inactive: dose: 60.0 mg/kg/injection, schedule: Q01DX005 (ip), vehicle: saline with Tween-80 110 % of control | dose: 120.0 mg/kg/injection, schedule: Q01DX005 (ip), vehicle: saline with Tween-80 107 % of control | dose: 240.0 mg/kg/injection, schedule: Q01DX005 (ip), vehicle: saline with Tween-80 113 % of control

C=C1C(C2=[N+]([O-])CCN2O)OC2OC(C)(C)OC12 (centres undefined)
inactive: dose: 60.0 mg/kg/injection, schedule: Q01DX005 (ip), vehicle: Klucel (hydroxypropylcellulose) (HPC) 93 % of control | dose: 120.0 mg/kg/injection, schedule: Q01DX005 (ip), vehicle: Klucel (hydroxypropylcellulose) (HPC) 101 % of control | dose: 240.0 mg/kg/injection, schedule: Q01DX005 (ip), vehicle: Klucel (hydroxypropylcellulose) (HPC) 101 % of control

O=C1C(=Cc2cc(Cl)c(O)c(Cl)c2)C(=O)c2ccccc21
inactive: [4] 97 % of control | [5] 86 % of control | [6] 88 % of control

Cc1cccc(C)c1NC(=O)C1CN(c2c(C)cccc2C)C(=O)/C1=N\O (centres undefined)
inactive: [1] 111 % of control | [2] 108 % of control | [3] 103 % of control

CC(=O)OC(C)CCCCCCCCCCCCCCC1=C(C)C(=O)OC1=O (centres undefined)
inactive: dose: 25.0 mg/kg/injection, schedule: Q01DX005 (ip), vehicle: Klucel (hydroxypropylcellulose) (HPC) 99 % of control | [9] 106 % of control | [10] 108 % of control | [11] 105 % of control | dose: 400.0 mg/kg/injection, schedule: Q01DX005 (ip), vehicle: Klucel (hydroxypropylcellulose) (HPC) 101 % of control

CCOC(=O)C1=C(Nc2ccc(OC)cc2)C(N)=NC1=N
inactive: dose: 6.25 mg/kg/injection, schedule: Q01DX009 (ip), vehicle: suspension in saline 100 % of control | dose: 12.5 mg/kg/injection, schedule: Q01DX009 (ip), vehicle: suspension in saline 102 % of control and 110 % of control | dose: 25.0 mg/kg/injection, schedule: Q01DX009 (ip), vehicle: suspension in saline 106 % of control and 117 % of control | dose: 50.0 mg/kg/injection, schedule: Q01DX009 (ip), vehicle: suspension in saline 102 % of control and 121 % of control | dose: 100.0 mg/kg/injection, schedule: Q01DX009 (ip), vehicle: suspension in saline 92 % of control

N=c1c2ccccc2c2ccccc2n1O
inactive: dose: 50.0 mg/kg/injection, schedule: Q01DX001 (ip), vehicle: saline sonified 110 % of control | dose: 100.0 mg/kg/injection, schedule: Q01DX001 (ip), vehicle: saline sonified 90 % of control | dose: 200.0 mg/kg/injection, schedule: Q01DX001 (ip), vehicle: saline sonified 100 % of control

O=c1c2cc3ccccc3n2c(=O)c2cc3ccccc3n12
inactive: dose: 50.0 mg/kg/injection, schedule: Q01DX009 (ip), vehicle: Klucel (hydroxypropylcellulose) (HPC) 87 % of control | dose: 100.0 mg/kg/injection, schedule: Q01DX009 (ip), vehicle: Klucel (hydroxypropylcellulose) (HPC) 91 % of control | dose: 200.0 mg/kg/injection, schedule: Q01DX009 (ip), vehicle: Klucel (hydroxypropylcellulose) (HPC) 92 % of control

C=CCNC(=S)NCCN(CCO)C(=S)NCC=C
inactive: dose: 12.5 mg/kg/injection, schedule: Q01DX009 (ip), vehicle: saline 105 % of control | dose: 25.0 mg/kg/injection, schedule: Q01DX009 (ip), vehicle: saline 104 % of control | [12] 104 % of control and 93 % of control | [8] 98 % of control

O=C(O)C1CC[N-]CC1.O=C(O)C1CC[N-]CC1.O=C(O)C1CC[N-]CC1.O=C(O)C1CC[N-]CC1.[Cl][Rh][Cl]
inactive: dose: 67.0 mg/kg/injection, schedule: Q01DX009 (ip), vehicle: saline with Tween-80 100 % of control | dose: 100.0 mg/kg/injection, schedule: Q01DX009 (ip), vehicle: saline with Tween-80 109 % of control | dose: 150.0 mg/kg/injection, schedule: Q01DX009 (ip), vehicle: saline with Tween-80 113 % of control

O=C(O)CC1(C(=O)O)CCC(OCc2ccccc2)CC1 (centres undefined)
inactive: [12] 102 % of control | [7] 92 % of control
